Results reported in patent US10538555B2, “Macrocyclic inhibitors of the PD-1/PD-L1 and CD80(B7-1)/PD-L1 protein/protein interactions” (BRISTOL-MYERS SQUIBB COMPANY, priority 2014, dated 2020).
Where two headings read alike, the source gives them in different places. *1 amine or outer side, *2 acyl side, *3 side chain or, on linkers, in order; H or OH if unused. Where a SMILES comes first, the peptide text is derived from it. Bridges are numbered along the chain shown (N, C = ends). [ ]: non-standard residue; d: D form. Phe(3,4,5-F3) = N[C@@H](Cc1cc(F)c(F)c(F)c1)C(=O)O; d(cisHyp) = O=C(O)[C@H]1C[C@@H](O)CN1; NMeF = CN[C@@H](Cc1ccccc1)C(=O)O; X1 = O=C([C@H]1COCCN1[*:1])[*:2]; dPip(4-aza) = O=C(O)[C@H]1CNCCN1; NMeE = CN[C@@H](CCC(=O)O)C(=O)O; NMeNle = CCCC[C@H](NC)C(=O)O; hSer = N[C@@H](CCO)C(=O)O; Orn = NCCC[C@H](N)C(=O)O

Target: T1, Human PD-L1/PD-1 (Homo sapiens, UniProt Q9NZQ7)
T1 construct: TVMV protease cleavage site (C); made in house; host or cells: HEK293T cells
Assay: HTRF Human PD-L1/PD-1 binding assay (PD-1-Ig/PD-L1-His)
Settings: PD-L1-His 10 nM, PD-1-Ig 20 nM
How it was run: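 Soluble HEK293T-expressed proteins: hPD-L1-His 10 nM, hPD-1-Ig 20 nM final. Cpd + PD-L1 15 min, + PD-1 15 min, + Eu anti-Ig 1 nM/APC anti-His 20 nM 30 min. Buffer dPBS, 0.1% BSA, 0.05% Tween-20. TR-FRET 665/620.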

[1] = class symbol, read-out: HTRF Human PD-L1/PD-1 Binding Assay IC50 Range

T1 sequence (Q9NZQ7 with tags, fused parts or gaps): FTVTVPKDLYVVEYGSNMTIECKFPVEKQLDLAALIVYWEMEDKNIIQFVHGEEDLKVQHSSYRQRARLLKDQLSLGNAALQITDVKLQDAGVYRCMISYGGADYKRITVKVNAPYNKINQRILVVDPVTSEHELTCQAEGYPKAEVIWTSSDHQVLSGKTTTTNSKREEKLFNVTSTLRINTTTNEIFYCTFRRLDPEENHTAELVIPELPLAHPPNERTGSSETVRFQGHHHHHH

Row | Compound | IC50 [1] | IC50 (read-out: HTRF Human PD-L1/PD-1 Binding Assay IC50)
1 | CCCC[C@H]1C(=O)N2C[C@H](O)C[C@@H]2C(=O)N[C@@H](CC(=O)O)C(=O)N[C@@H](C(C)C)C(=O)N(C)[C@@H](Cc2ccccc2)C(=O)N[C@@H](CCC(=O)O)C(=O)N2CCNC[C@@H]2C(=O)N[C@@H](Cc2c[nH]c3ccccc23)C(=O)N[C@@H](Cc2ccc(O)cc2)C(=O)N[C@@H](CCCN)C(=O)N[C@H](C(=O)NCC(N)=O)CSCC(=O)N[C@@H](Cc2cc(F)c(F)c(F)c2)C(=O)N(C)[C@@H](Cc2ccccc2)C(=O)N1C [Example 10166] ({CH2CO}-[Phe(3,4,5-F3)][NMeF][NMeNle][d(cisHyp)]DV[NMeF]E[dPip(4-aza)]WY[Orn]CG-NH2; thioether N-13) | 1 to 9.9 nM | 
2 | CCCC[C@H]1C(=O)N2CCNC[C@@H]2C(=O)N[C@@H](CC(=O)O)C(=O)N[C@@H](C(C)C)C(=O)N(C)[C@@H](Cc2ccccc2)C(=O)N[C@@H](CCC(=O)O)C(=O)N2C[C@H](O)C[C@@H]2C(=O)N[C@@H](Cc2c[nH]c3ccccc23)C(=O)N[C@@H](Cc2ccc(O)cc2)C(=O)N[C@@H](CC(C)C)C(=O)N[C@H](C(=O)NCC(N)=O)CSCC(=O)N[C@@H](Cc2cc(F)c(F)c(F)c2)C(=O)N(C)[C@@H](Cc2ccccc2)C(=O)N1C [Example 10167] ({CH2CO}-[Phe(3,4,5-F3)][NMeF][NMeNle][dPip(4-aza)]DV[NMeF]E[d(cisHyp)]WYLCG-NH2; thioether N-13) | 1 to 9.9 nM | 
3 | CCCC[C@H]1C(=O)N2C[C@H](O)C[C@@H]2C(=O)N[C@@H](CC(=O)O)C(=O)N[C@@H](C(C)C)C(=O)N(C)[C@@H](Cc2ccccc2)C(=O)N[C@@H](Cc2ccc(O)cc2)C(=O)N2CCNC[C@@H]2C(=O)N[C@@H](Cc2c[nH]c3ccccc23)C(=O)N[C@@H](Cc2ccc(O)cc2)C(=O)N[C@@H](CC(C)C)C(=O)N[C@H](C(=O)NCC(N)=O)CSCC(=O)N[C@@H](Cc2cc(F)c(F)c(F)c2)C(=O)N(C)[C@@H](Cc2ccccc2)C(=O)N1C [Example 10168] ({CH2CO}-[Phe(3,4,5-F3)][NMeF][NMeNle][d(cisHyp)]DV[NMeF]Y[dPip(4-aza)]WYLCG-NH2; thioether N-13) | 1 to 9.9 nM | 
4 | CCCC[C@H]1C(=O)N2C[C@H](O)C[C@@H]2C(=O)N[C@@H](CC(=O)O)C(=O)N[C@@H](C(C)C)C(=O)N(C)[C@@H](Cc2ccccc2)C(=O)N[C@@H](CCCN)C(=O)N2CCNC[C@@H]2C(=O)N[C@@H](Cc2c[nH]c3ccccc23)C(=O)N[C@@H](Cc2ccc(O)cc2)C(=O)N[C@@H](CCO)C(=O)N[C@H](C(=O)NCC(N)=O)CSCC(=O)N[C@@H](Cc2cc(F)c(F)c(F)c2)C(=O)N(C)[C@@H](Cc2ccccc2)C(=O)N1C [Example 10169] ({CH2CO}-[Phe(3,4,5-F3)][NMeF][NMeNle][d(cisHyp)]DV[NMeF][Orn][dPip(4-aza)]WY[hSer]CG-NH2; thioether N-13) | 1 to 9.9 nM | 
5 | CCCC[C@H]1C(=O)N2CCC[C@@H]2C(=O)N[C@@H](CC(=O)O)C(=O)N[C@@H](C(C)C)C(=O)N(C)[C@@H](Cc2ccccc2)C(=O)N[C@@H](CC(=O)O)C(=O)N2CCC[C@@H]2C(=O)N[C@@H](Cc2c[nH]c3ccccc23)C(=O)N[C@@H](Cc2ccc(O)cc2)C(=O)N[C@@H](CCO)C(=O)N[C@H](C(=O)NCC(N)=O)CSCC(=O)N[C@@H](Cc2cc(F)c(F)c(F)c2)C(=O)N(C)[C@@H](Cc2ccccc2)C(=O)N1C [Example 10170] ({CH2CO}-[Phe(3,4,5-F3)][NMeF][NMeNle][dP]DV[NMeF]D[dP]WY[hSer]CG-NH2; thioether N-13) | 1 to 9.9 nM | 
6 | CCCC[C@H]1C(=O)N2CCC[C@@H]2C(=O)N[C@@H](CC(=O)O)C(=O)N[C@@H](C(C)C)C(=O)N(C)[C@@H](Cc2ccccc2)C(=O)N[C@@H](CC(=O)O)C(=O)N2CCC[C@@H]2C(=O)N[C@@H](Cc2c[nH]c3ccccc23)C(=O)N[C@@H](Cc2ccc(O)cc2)C(=O)N[C@@H](CCCCN)C(=O)N[C@H](C(=O)NCC(N)=O)CSCC(=O)N[C@@H](Cc2cc(F)c(F)c(F)c2)C(=O)N(C)[C@@H](Cc2ccccc2)C(=O)N1C [Example 10171] ({CH2CO}-[Phe(3,4,5-F3)][NMeF][NMeNle][dP]DV[NMeF]D[dP]WYKCG-NH2; thioether N-13) | 10 to 99.9 nM | 
7 | CCCC[C@H]1C(=O)N2CCC[C@@H]2C(=O)N[C@@H](CC(=O)O)C(=O)N[C@@H](C(C)C)C(=O)N(C)[C@@H](Cc2ccccc2)C(=O)N[C@@H](CC(=O)O)C(=O)N2C[C@H](O)C[C@@H]2C(=O)N[C@@H](Cc2c[nH]c3ccccc23)C(=O)N[C@@H](Cc2ccc(O)cc2)C(=O)N[C@@H](CCO)C(=O)N[C@H](C(=O)NCC(N)=O)CSCC(=O)N[C@@H](Cc2cc(F)c(F)c(F)c2)C(=O)N(C)[C@@H](Cc2ccccc2)C(=O)N1C [Example 10172] ({CH2CO}-[Phe(3,4,5-F3)][NMeF][NMeNle][dP]DV[NMeF]D[d(cisHyp)]WY[hSer]CG-NH2; thioether N-13) | 10 to 99.9 nM | 
8 | CCCC[C@H]1C(=O)N2C[C@H](O)C[C@@H]2C(=O)N[C@@H](CC(=O)O)C(=O)N[C@@H](C(C)C)C(=O)N(C)[C@@H](Cc2ccccc2)C(=O)N[C@@H](CC(=O)O)C(=O)N2C[C@H](O)C[C@@H]2C(=O)N[C@@H](Cc2c[nH]c3ccccc23)C(=O)N[C@@H](Cc2ccc(O)cc2)C(=O)N[C@@H](CCO)C(=O)N[C@H](C(=O)NCC(N)=O)CSCC(=O)N[C@@H](Cc2cc(F)c(F)c(F)c2)C(=O)N(C)[C@@H](Cc2ccccc2)C(=O)N1C [Example 10173] ({CH2CO}-[Phe(3,4,5-F3)][NMeF][NMeNle][d(cisHyp)]DV[NMeF]D[d(cisHyp)]WY[hSer]CG-NH2; thioether N-13) | 10 to 99.9 nM | 
9 | CCCC[C@H]1C(=O)N2CCC[C@@H]2C(=O)N[C@@H](CC(=O)O)C(=O)N[C@@H](C(C)C)C(=O)N(C)[C@@H](Cc2ccccc2)C(=O)N[C@@H](CC(=O)O)C(=O)N2C[C@H](O)C[C@@H]2C(=O)N[C@@H](Cc2c[nH]c3ccccc23)C(=O)N[C@@H](Cc2ccc(O)cc2)C(=O)N[C@@H](CCCCN)C(=O)N[C@H](C(=O)NCC(N)=O)CSCC(=O)N[C@@H](Cc2cc(F)c(F)c(F)c2)C(=O)N(C)[C@@H](Cc2ccccc2)C(=O)N1C [Example 10174] ({CH2CO}-[Phe(3,4,5-F3)][NMeF][NMeNle][dP]DV[NMeF]D[d(cisHyp)]WYKCG-NH2; thioether N-13) | 1 to 9.9 nM | 
10 | CCCC[C@H]1C(=O)N2CCC[C@@H]2C(=O)N[C@@H](CC(=O)O)C(=O)N[C@@H](C(C)C)C(=O)N(C)[C@@H](Cc2ccccc2)C(=O)N[C@@H](CCCN)C(=O)N2CCC[C@@H]2C(=O)N[C@@H](Cc2c[nH]c3ccccc23)C(=O)N[C@@H](Cc2ccc(O)cc2)C(=O)N[C@@H](CCO)C(=O)N[C@H](C(=O)NCC(N)=O)CSCC(=O)N[C@@H](Cc2cc(F)c(F)c(F)c2)C(=O)N(C)[C@@H](Cc2ccccc2)C(=O)N1C [Example 10175] ({CH2CO}-[Phe(3,4,5-F3)][NMeF][NMeNle][dP]DV[NMeF][Orn][dP]WY[hSer]CG-NH2; thioether N-13) | 1 to 9.9 nM | 
11 | CC(C)C[C@@H]1NC(=O)[C@H](Cc2ccc(O)cc2)NC(=O)[C@H](Cc2c[nH]c3ccccc23)NC(=O)[C@H]2COCCN2C(=O)[C@H](Cc2ccc(O)cc2)NC(=O)[C@H](Cc2ccccc2)N(C)C(=O)[C@H](C(C)C)NC(=O)[C@H](CC(=O)O)NC(=O)[C@H]2C[C@@H](O)CN2C(=O)[C@H](CCC(=O)O)N(C)C(=O)[C@H](Cc2ccccc2)N(C)C(=O)[C@H](Cc2cc(F)c(F)c(F)c2)NC(=O)CSC[C@@H](C(=O)NCC(N)=O)NC1=O [Example 10176] ({CH2CO}-[Phe(3,4,5-F3)][NMeF][NMeE][d(cisHyp)]DV[NMeF]Y[X1]WYLCG-NH2; thioether N-13) |  | 11 nM
